Structures are written as SMILES.

Data on two molecules can be found in patent publication EP4467141A1, “PYRAZOLO-QUINOLINES AS SELECTIVE INHIBITORS OF GENOTOXIC STRESS-INDUCED IKK/NF- KB PATHWAYS FOR CANCER THERAPY” (Max-Delbrück-Centrum für Molekulare Medizin in der …, priority 2023, dated 2024).

What all share (assay): Kinase panel study
Holding throughout (type): biochemical
Conditions in all cases: read-out: Percentage of inhibition; for inhibition at 1 µM: 1000nM; for inhibition at 10 µM: 10000nM

Assay [1] deals with T1, KDR (VEGFR2) (Homo sapiens, UniProt P35968).
T1 construct: purchased Thermo Fisher Scientific
T1 sequence (P35968 20-1356): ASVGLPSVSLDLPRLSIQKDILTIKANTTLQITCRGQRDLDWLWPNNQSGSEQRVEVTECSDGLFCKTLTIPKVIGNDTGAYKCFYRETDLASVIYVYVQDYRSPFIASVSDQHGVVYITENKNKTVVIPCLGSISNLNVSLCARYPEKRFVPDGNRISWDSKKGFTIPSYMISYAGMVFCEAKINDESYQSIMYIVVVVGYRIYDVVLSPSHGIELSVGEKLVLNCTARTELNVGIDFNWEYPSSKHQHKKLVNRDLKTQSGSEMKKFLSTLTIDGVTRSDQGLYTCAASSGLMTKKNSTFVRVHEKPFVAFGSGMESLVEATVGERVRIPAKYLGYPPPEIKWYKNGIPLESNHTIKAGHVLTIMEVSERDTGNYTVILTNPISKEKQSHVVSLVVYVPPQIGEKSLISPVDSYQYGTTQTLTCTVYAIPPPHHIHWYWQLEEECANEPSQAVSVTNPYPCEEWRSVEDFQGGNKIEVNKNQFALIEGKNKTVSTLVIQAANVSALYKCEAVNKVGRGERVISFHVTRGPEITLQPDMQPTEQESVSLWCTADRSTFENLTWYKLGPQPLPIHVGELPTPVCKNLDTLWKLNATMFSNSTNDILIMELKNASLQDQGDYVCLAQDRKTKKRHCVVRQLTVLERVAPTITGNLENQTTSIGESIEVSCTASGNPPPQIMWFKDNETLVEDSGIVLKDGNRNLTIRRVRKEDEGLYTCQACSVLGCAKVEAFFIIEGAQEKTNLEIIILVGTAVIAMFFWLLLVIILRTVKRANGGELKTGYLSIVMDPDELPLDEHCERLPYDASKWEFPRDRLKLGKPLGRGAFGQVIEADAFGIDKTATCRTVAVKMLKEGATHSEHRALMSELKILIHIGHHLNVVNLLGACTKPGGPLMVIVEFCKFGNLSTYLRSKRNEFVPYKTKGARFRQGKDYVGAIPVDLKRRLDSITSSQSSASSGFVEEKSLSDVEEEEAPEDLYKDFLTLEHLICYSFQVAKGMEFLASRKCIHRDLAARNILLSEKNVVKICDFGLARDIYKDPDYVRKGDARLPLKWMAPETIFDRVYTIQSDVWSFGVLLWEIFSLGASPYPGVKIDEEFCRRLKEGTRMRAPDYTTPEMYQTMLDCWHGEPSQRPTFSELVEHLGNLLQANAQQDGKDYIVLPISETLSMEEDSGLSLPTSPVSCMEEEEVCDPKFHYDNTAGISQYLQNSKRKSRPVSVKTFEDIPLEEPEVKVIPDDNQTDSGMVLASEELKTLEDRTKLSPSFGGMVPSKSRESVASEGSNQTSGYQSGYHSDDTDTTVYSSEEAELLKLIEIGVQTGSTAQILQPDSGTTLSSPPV
Put shortly:
(§1)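 Lead compounds and derivatives were profiled by ZLyte or Adapta in vitro kinase assays. Each value reports inhibition percentage at one of two concentrations, 1 µM or 10 µM.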

Assay [2] concerns the target T2, EEF2K (Homo sapiens, UniProt O00418).
T2 construct: purchased Thermo Fisher Scientific
Put shortly: as §1

The target in assay [3] is T3, SYK (Homo sapiens, UniProt P43405).
T3 construct: purchased Thermo Fisher Scientific
An outline of the steps: as §1

Assay [4] deals with T4, AURKC (Aurora C) (Homo sapiens, UniProt Q9UQB9).
T4 construct: purchased Thermo Fisher Scientific
T4 sequence (Q9UQB9 1-309): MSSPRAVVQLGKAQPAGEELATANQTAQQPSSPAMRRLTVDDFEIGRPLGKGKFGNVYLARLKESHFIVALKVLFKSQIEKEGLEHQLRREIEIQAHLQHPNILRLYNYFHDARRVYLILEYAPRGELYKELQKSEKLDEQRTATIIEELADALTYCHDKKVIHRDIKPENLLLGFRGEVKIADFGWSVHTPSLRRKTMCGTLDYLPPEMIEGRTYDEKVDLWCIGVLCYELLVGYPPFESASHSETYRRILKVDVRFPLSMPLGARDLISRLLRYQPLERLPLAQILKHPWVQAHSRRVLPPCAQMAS
An outline of the steps: as §1

Assay [5] addresses T5, ABL1 T315I (Homo sapiens, UniProt P00519, T315I).
T5 construct: purchased Thermo Fisher Scientific
Put shortly:
as §1

Assay [6] deals with T6, ABL1 F317I (Homo sapiens, UniProt P00519, F317I).
T6 construct: purchased Thermo Fisher Scientific
An outline of the steps:
as §1

The target in assay [7] is T7, TBK1 (Homo sapiens, UniProt Q9UHD2).
T7 construct: purchased Thermo Fisher Scientific
T7 sequence (Q9UHD2 1-729): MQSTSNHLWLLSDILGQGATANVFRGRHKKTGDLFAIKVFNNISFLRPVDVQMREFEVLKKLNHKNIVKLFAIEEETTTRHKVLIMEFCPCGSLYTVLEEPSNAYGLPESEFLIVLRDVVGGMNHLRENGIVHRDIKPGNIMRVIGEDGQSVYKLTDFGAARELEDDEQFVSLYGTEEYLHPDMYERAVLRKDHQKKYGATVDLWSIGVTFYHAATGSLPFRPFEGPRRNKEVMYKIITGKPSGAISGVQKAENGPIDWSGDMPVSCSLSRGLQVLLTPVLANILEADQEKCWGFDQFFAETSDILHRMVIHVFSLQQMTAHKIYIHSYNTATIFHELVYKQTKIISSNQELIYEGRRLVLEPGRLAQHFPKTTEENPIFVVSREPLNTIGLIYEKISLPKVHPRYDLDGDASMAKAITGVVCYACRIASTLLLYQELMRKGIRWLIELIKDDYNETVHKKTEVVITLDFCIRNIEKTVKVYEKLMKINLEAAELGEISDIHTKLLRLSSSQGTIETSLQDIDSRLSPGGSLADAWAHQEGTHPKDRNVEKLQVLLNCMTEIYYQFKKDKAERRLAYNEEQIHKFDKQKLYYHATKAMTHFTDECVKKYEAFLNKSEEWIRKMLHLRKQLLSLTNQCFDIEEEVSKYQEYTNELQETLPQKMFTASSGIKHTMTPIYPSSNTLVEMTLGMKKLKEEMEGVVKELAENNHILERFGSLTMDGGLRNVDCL
Put shortly: as §1

Assay [8] has as its target T8, PIK3CA E542K/PIK3R1 (p11 0 alpha E542K/p85 alpha) (Homo sapiens, UniProt P42336, E542K).
T8 construct: purchased Thermo Fisher Scientific
Put shortly:
as §1

T8 sequence (P42336 whole entry E542K): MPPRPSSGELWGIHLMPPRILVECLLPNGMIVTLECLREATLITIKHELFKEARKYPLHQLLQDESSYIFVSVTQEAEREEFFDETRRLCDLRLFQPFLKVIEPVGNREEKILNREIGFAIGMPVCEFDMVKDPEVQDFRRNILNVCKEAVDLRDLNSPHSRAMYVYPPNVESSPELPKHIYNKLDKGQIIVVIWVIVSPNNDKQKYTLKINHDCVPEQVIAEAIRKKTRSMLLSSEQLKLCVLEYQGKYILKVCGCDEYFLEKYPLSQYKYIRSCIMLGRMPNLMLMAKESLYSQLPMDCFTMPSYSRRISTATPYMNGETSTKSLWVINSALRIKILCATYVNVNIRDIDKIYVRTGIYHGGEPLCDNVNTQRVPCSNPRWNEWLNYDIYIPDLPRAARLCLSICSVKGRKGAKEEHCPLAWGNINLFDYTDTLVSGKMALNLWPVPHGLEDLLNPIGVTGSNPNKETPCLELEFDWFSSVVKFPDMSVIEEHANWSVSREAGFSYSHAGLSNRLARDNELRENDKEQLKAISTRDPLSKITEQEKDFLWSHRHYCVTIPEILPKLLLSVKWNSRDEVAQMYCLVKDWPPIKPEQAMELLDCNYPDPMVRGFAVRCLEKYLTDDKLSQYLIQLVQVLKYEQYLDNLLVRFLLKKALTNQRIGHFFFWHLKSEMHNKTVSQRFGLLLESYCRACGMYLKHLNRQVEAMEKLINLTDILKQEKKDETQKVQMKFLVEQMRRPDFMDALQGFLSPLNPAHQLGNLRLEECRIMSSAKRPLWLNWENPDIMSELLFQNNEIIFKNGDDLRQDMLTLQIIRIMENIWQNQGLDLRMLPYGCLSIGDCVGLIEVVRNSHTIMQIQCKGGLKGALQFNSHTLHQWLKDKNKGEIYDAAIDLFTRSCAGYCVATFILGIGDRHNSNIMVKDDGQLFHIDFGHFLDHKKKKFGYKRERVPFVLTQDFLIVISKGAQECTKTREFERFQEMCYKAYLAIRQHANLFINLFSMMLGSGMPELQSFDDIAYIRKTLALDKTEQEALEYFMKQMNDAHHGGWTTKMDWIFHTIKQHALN
T8 sequence (P27986 whole entry partner): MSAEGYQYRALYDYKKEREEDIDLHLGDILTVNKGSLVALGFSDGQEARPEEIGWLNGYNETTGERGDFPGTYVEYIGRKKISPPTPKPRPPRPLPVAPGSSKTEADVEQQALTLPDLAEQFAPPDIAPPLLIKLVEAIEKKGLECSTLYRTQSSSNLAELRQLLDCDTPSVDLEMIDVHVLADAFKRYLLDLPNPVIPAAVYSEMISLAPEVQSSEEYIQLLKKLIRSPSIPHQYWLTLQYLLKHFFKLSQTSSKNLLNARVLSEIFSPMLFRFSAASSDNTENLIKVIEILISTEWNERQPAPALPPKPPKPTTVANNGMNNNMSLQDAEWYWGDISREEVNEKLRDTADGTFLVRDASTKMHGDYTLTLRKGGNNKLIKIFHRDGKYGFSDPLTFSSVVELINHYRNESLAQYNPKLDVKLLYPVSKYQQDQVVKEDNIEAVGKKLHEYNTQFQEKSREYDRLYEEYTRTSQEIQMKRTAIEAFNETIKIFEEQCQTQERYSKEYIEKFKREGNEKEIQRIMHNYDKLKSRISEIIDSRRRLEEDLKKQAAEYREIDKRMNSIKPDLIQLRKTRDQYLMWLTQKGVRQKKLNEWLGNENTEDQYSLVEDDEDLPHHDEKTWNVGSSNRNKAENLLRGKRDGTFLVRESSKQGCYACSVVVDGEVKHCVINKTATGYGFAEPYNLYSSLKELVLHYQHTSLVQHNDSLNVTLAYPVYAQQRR

The term inhibition denotes the relative decrease from the control value, in per cent. Consider `COc1ccc2c(c1OC)c(=O)n1c3ccc(O)cc3c3ccnc2c31` [MW01, 5-Hydroxy-10,11-dimethoxy-9H-benzo[c]indolo[3,2,1-ij][1,5]naphthyridin-9-one], for which the inhibition at 1 µM in assay [1] worked out at 24%; in assay [2], 11%; in assay [3], 16%; in assay [4], 8%; in assay [5], 9%; in assay [6], 8%. The inhibition at 1 µM in assay [7] worked out at 8%; in assay [8], 94%. Also, the inhibition at 10 µM in assay [1] turned out to be 54%; in assay [2] it was 37%; in assay [3], 37%; in assay [4], 10%; in assay [5], 34%; in assay [6], 19%. The inhibition at 10 µM in assay [7] was 17%; in assay [8] it was 96%.
As for `COc1ccc2cc3c(N)nn(C(=O)c4cccc(N(C)C)c4)c3nc2c1` [MW05, (3-Amino-7-methoxypyrazolo[3,4-b]quinolin-1-yl)-[3-(dimethylamino)phenyl]methanone], the inhibition at 1 µM was determined as 7% in assay [1]; 3% in assay [2]; 5% in assay [3]; 9% in assay [4]; 8% in assay [5]; 6% in assay [6]. The inhibition at 1 µM was found to be 11% in assay [7] and 22% in assay [8]. Moreover, the inhibition at 10 µM in assay [1] was -15%; in assay [2], 5%; in assay [3], 7%; in assay [4], 9%; in assay [5], 5%; in assay [6], -1%. In addition, the inhibition at 10 µM in assay [7] was -8%; in assay [8], 68%.
